pIC50: −log10 of the molar value. Peptide text beside a SMILES is read from it.
What was measured:
[1] = tested on: PMA-differentiated THP-1 cells; format: cell-based, human; conditions: 3 h
Procedure: (§1) The ability of [SRSRY] peptide to affect THP-1 cell migration was analyzed in Boyden chambers using 10 nM fMLF or 10 nM SRSRY as chemoattractants. […] Inhibitory effect of [SRSRY] is dose-dependent, it starts in the high fM range, it seems to level off in the μM range and reaches an overall 50% reduction at 10 pM (Fig 4B). […] The mechanisms by which monocytes move when subjected to a chemoattractant gradient, involve changes in cytoskeletal organization, which provide both protrusive and contractile forces necessary for cell migration. To gain some insights into the cellular effects exerted by peptide [SRSRY], PMA-differentiated THP-1 cells were grown adherent onto a glass slide, exposed to diluents (CTL), 10 nM fMLF gradient plus/minus 10 nM [SRSRY] or 10 nM [RSSYR] in a DUNN chamber for 6 hours as described, and then stained with rhodamine-phalloidin. A total of 100 cells/sample that translocated to the area corresponding to the ring separating the inner and outer chambers were counted and their cytoskeletal organization examined with a fluorescence-inverted microscope. […] Conversely, the addition of peptide [SRSRY] to the fMLF gradient reduced cell elongation and alignment with the appearance of F-actin linear distribution along the plasma membranes in the 60% of cell population (Fig 4C). In order to verify whether the inhibitory effect of [SRSRY] also occurs on primary monocytes and/or macrophages, human monocytes and macrophages were subjected to cell migration assays in Boyden and DUNN chambers, respectively. […] Unlike [RSSYR], 10 nM [SRSRY] reduced both fMLF- and SRSRY- directed monocyte migration by 50% and 49%, respectively. Next, primary macrophages were subjected to cell migration assay in DUNN chamber as above described. After 6 hours incubation, a total of 100 cells/sample that translocated to the area corresponding to the ring separating the inner and outer chambers were counted. Macrophage exposure to 10 nM fMLF elicited a considerable cell migration, reaching 230% of the basal cell migration (CTL), that was unchanged by 10 nM [[…]). […] These findings indicate that unlike linear SRSRY, the cyclic form of the chemotactic sequence of uPAR inhibits monocyte motility and prevents cytoskeletal re-organization occurring during migration of macrophages. {[…]] inhibits migration of monocytes and macrophages in a dose-dependent manner causing a marked inhibition of fMLF-dependent cytoskeletal re-organization. A. THP-1 cells (1x10^5 cells/well) were allowed to migrate for 90 minutes at 37°C, 5% CO2 in Boyden chambers toward 10 nM fMLF, or 10 nM SRSRY in the presence of diluents (None), 10 nM [RSSYR] or 10 nM [SRSRY]. […] Data are expressed as the means ± SD of three independent experiments, performed in duplicate. *Statistical significance against None with p<0.001. B. THP-1 and PMA-stimulated THP-1 cell migration toward 10 nM fMLF plus increasing concentrations of [SRSRY] in Boyden chambers. The extent of cell migration was expressed as a percentage of the net fMLF-dependent cell migration, considered as 100%. Data are expressed as the means ± SD of three independent experiments, performed in duplicate. C. Representative images of PMA-stimulated THP-1 cells allowed to migrate in a DUNN chamber toward diluents (CTL), or a fMLF chemotactic gradient, in the absence (None) or presence of 10 nM [SRSRY] or [RSSYR] peptides and stained with rhodamine-phalloidin. Scale bar: 10 μm. Original magnifications: 630x. D-E. Primary monocytes (1x10^5 cells/well) were allowed to migrate for 90 minutes at 37°C, 5% CO2 in Boyden chambers toward 10 nM fMLF (D), or 10 nM […]) in the presence of diluents (None), 10 nM [RSSYR] or 10 nM [SRSRY]. […] Data are expressed as the means ± SD of three independent experiments, performed in duplicate. *Statistical significance against None with p<0.001; **Statistical significance against None with p<0.0001. […]

THP-1 cells = format: cell-based, human
Procedure: as §1

[2] = 10 nM peptide, 90 minutes, Boyden chamber

N=C(N)NCCC[C@@H]1NC(=O)[C@H](CO)NC(=O)[C@H](Cc2ccc(O)cc2)NC(=O)[C@H](CCCNC(=N)N)NC(=O)[C@H](CO)NC1=O [[SRSRY], [Ser-Arg-Ser-Arg-Tyr]] (cyclo(RSRYS))
pIC50 [1]: 11.00
reduction of THP-1 monocyte migration toward 10 nM SRSRY (THP-1 cells; [2]): 68%
reduction of THP-1 monocyte migration toward 10 nM fMLF (THP-1 cells; [2]): 58%
pIC50 (THP-1 cells; 6 h): 11.00
